This data set concerns purified human TFH cells. Put plainly: TFH stimulation: viability and cytokine expression. The data set is classed as cell-based. The source says:
FIG. 6A-I. Increased TFH cell recruitment supports to HVEM deficient lymphoma B cells. FIG. 6A, FACS identification and sorting of human GC derived TFH cells based on the markers CD3pos, CD4pos, CD25neg, PD1hi, CXCRShi, left: isotypic control; right; staining with anti-BTLA antibody; FIG. 6B and FIG. 6C, FACS measurement (FIG. 6B) and quantification (FIG. 6C) of intra-tumoral TFH cells in control and HVEM deficient murine lymphomas; FIG. 6D and FIG. 6E, qRT-PCR measurement of IL21 (FIG. 6D), and IL4 (FIG. 6E) in sorted intra-tumoral T cells (N=?); FIG. 6F, qRT-PCR measurement of the LTa, LTb, and TNFa mRNA expression in T cells isolated from the spleens of vector and shHVEM mice * p<?; G-I, qRT-PCR measurement of TNFa (FIG. 6G), LTa (FIG. 6H), and LTb (FIG. 61) in cell sorted TFH (n=4) cultured with anti-CD3/anti-CD28 Mabs in presence or not of soluble HVEM (solHVEM, 10 μg/ml), each symbol represents an independent TFH sample.
FIG. 13A-E. Analysis of TFH cell function in HVEM deficient lymphomas. FIG. 13A and FIG. 13B, qRT-PCR measurement of the receptors for IL21 (IL-21ra; A), and IL4 (IL4ra; B) in purified lymphoma B cells; FIG. 13C, Viability of purified murine TFH cells (samples: n=4) that were cultured for 3 days with or without (UN) stimulation by anti-CD3/anti-CD28 in the presence or absence of the soluble HVEM ectodomain (solHVEM: 10 μg/ml); FIG. 13D, Cell-Sorted GC-TFH cultured with anti-CD3/anti-CD28 Mabs in presence or not of solHVEM; production of CXCL13(FIG. 13E) and IL-21(FIG. 13F) evaluated by ELISA.
The stroma-derived cytokine CXCL13 is the main chemo-attractant for CXCRSpos follicular T helper cells (TFH) (Crotty, 2014). […] This increase in TFH cell numbers is associated with an elevated expression of the TFH derived cytokines. […] Further, it was observed that the increased production of IL21 and IL4 by TFH cells was matched with an elevated expression of the IL21 and IL4 receptors on FACS purified lymphoma B cells from HVEM deficient lymphomas (p<0.01) (FIGS. 13A and 13B). Human TFH cells are characterized by high-level expression of the BTLA receptor (FIG. 13C) and experiments were performed to test whether HVEM directly affected these tumor infiltrating T cells. […]
Purified TFH were cultured in IMDM 10% FCS with or without anti-CD3 (0.6 μg/mL) and anti-CD28 (0.6 m/mL, Pelicluster Sanquin) MAbs in the presence or not of solHVEM (10 μg/mL). After 3 days of culture, the number of viable TFH was evaluated by flow cytometry using count beads (Flow Count, Beckman Coulter) and Topro-3 staining (Invitrogen). CXCL13 was quantified in culture supernatants by ELISA (R&D Systems) according to manufacturer's instructions.

Where [1] appears, read: with or without anti-CD3/anti-CD28, solHVEM 10 μg/mL, 3 days.

Turning to “solHVEM: Leu39-Val202 soluble HVEM ectodomain polypeptide of SEQ ID NO. 8”, under “solHVEM 10 μg/ml”, the “expression of LTa in TFH cells” value was “reductions” and the “expression of LTb in TFH cells” value is “reductions”. Besides, under setting [1], the TFH cell numbers result was “did not affect” and the TFH cell viability entry is given as “did not affect”.

These data come from patent US11261232B2, “TNFRSF14 / HVEM proteins and methods of use thereof” (MEMORIAL SLOAN KETTERING CANCER CENTER, priority 2015, dated 2022).
